The target of the test is tau (Homo sapiens, UniProt P10636). Briefly: MCE Phenols Library screening, tau biosensor cell seeding assay (AvZ). Particulars: for Z repl 1 / Z Repl 2: Z score; for Z repl 1 / raw data 1: replicate 1; for Z Repl 2 / raw data 2: replicate 2. In kind it is cell-based.
The mark [1] stands for this setting: average Z score of the two replicates, MCE Phenols Library screen.
Setting [2] is: average Z score of the two replicates, tau biosensor seeding, MCE Phenols Library screen.
Where [3] appears, read: average puncta of the two replicates.
The mark [4] stands for this setting: average Z score of two replicates, Phenols Library screen.
Where [5] appears, read: average Z score of the two replicates, tau seeding.

tau, sequence (P10636 623-695 limits assumed): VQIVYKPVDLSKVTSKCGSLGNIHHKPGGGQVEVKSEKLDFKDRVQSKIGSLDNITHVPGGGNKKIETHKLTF

As to `COc1cc(O)c2c(=O)c(OC)c(-c3ccc(OC)c(O)c3)oc2c1` [Ayanin], the “Z repl 1” value is on record as -1.206 and the “Z Repl 2” value was -0.903. For the same molecule, the “av Z” value under setting [1] is -1.054. The same molecule registered an av puncta (average of raw data 1 and 2) of 7498.38. Under “puncta”, the “raw data 1” value stood at 11871.6 and the “raw data 2” value is 3125.17.

Consider `O=c1c(O[C@@H]2O[C@H](CO)[C@@H](O)[C@H](O)[C@H]2O[C@@H]2O[C@H](CO)[C@@H](O)[C@H](O)[C@H]2O)c(-c2ccc(O)c(O)c2)oc2cc(O)cc(O)c12` [Baimaside], for which the “Z repl 1” value was 1.152 and the “Z Repl 2” value is on record as 0.927. For the same molecule, under setting [2], the “av Z” value is given as 1.04. This molecule also had an av puncta (average of raw data 1 and 2) of 31424.7. Under “puncta”, the “raw data 1” value worked out at 40179 and the “raw data 2” value came out at 22670.4.

Turning to `COc1ccc(-c2oc3c(CC=C(C)C)c(O)cc(O)c3c(=O)c2O[C@@H]2O[C@@H](C)[C@H](O)[C@@H](O)[C@H]2O)cc1` [Baohuoside I], the “Z repl 1” value was found to be 0.959 and the “Z Repl 2” value is reported as 1.521. Further, the “av Z” value under setting [2] was 1.24. For the same molecule, under “average of raw data 1 and 2”, the av puncta is recorded as 33434.4. For the same molecule, for the setting “puncta”, the “raw data 1” value came to 37856.1 and the “raw data 2” value is on record as 29012.8.

As for `CC(C)=CCc1cc(C(=O)/C=C/c2ccc(O)cc2)c(O)cc1O` [Bavachalcone], the “Z repl 1” value is -0.876 and the “Z Repl 2” value is on record as -0.134. Moreover, under setting [1], the “av Z” value is -0.505. Under setting [3], this molecule showed an av puncta of 13584.6. Besides, under “puncta”, the “raw data 1” value was determined as 15835.9 and the “raw data 2” value was 11333.2.

Turning to `CC(C)=CCc1cc2c(cc1O)O[C@H](c1ccc(O)cc1)CC2=O` [Bavachin], the “Z repl 1” value was -0.343 and the “Z Repl 2” value is listed as -0.767. For the same molecule, under setting [1], the “av Z” value is reported as -0.555. This molecule registered an av puncta under setting [3] of 13401.9. In addition, where the note is “puncta”, the “raw data 1” value worked out at 22229.8 and the “raw data 2” value is recorded as 4573.9.

Consider `COc1ccc2cc3[n+](cc2c1O)CCc1cc2c(cc1-3)OCO2.[Cl-]` [Berberrubine (chloride)], for which the “Z repl 1” value stood at 0.031 and the “Z Repl 2” value was -0.189. Also, the “av Z” value under setting [4] is reported as -0.079. The av puncta (average of raw data 1 and 2) was 18734.2. For the same molecule, where the note is “puncta”, the “raw data 1” value turned out to be 26719.5 and the “raw data 2” value is listed as 10748.8.

With `COc1c(O)cc2c(c1O)[C@@H]1O[C@H](CO)[C@@H](O)[C@H](O)[C@H]1OC2=O` [Bergenin], the “Z repl 1” value amounted to 0.275 and the “Z Repl 2” value is given as -0.537. Under setting [4], the “av Z” value is -0.131. Where the note is “average of raw data 1 and 2”, this molecule registered an av puncta of 18336.6. Where the note is “puncta”, the “raw data 1” value is recorded as 29646.8 and the “raw data 2” value is recorded as 7026.42.

As for `CC(=O)OC(C)(C)CC(=O)O[C@H](CC=C(C)C)C1=CC(=O)c2c(O)ccc(O)c2C1=O` [Beta-Acetoxyisovalerylshikonin], the “Z repl 1” value is -0.24 and the “Z Repl 2” value worked out at 0.548. Besides, the “av Z” value under setting [5] is recorded as 0.154. For the setting “average of raw data 1 and 2”, this molecule registered an av puncta of 21041.3. Under “puncta”, the “raw data 1” value stood at 23464.1 and the “raw data 2” value is listed as 18618.6.

As for `O=C(/C=C/c1ccc(O)cc1)CC(=O)/C=C/c1ccc(O)cc1` [Bisdemethoxycucurmin], the “Z repl 1” value came to 0.602 and the “Z Repl 2” value is -0.122. Also, the “av Z” value under setting [5] came to 0.24. Under “average of raw data 1 and 2”, the av puncta came to 22516.9. In addition, under “puncta”, the “raw data 1” value turned out to be 33572.4 and the “raw data 2” value is recorded as 11461.3.

In the case of `CC(C)(c1ccc(O)cc1)c1ccc(O)cc1` [Bisphenol A], the “Z repl 1” value came out at 0.124 and the “Z Repl 2” value is given as 0.085. Moreover, the “av Z” value under setting [4] is listed as 0.104. For the setting “average of raw data 1 and 2”, this molecule came in with an av puncta of 20753.8. Under “puncta”, the “raw data 1” value was 27836.8 and the “raw data 2” value is listed as 13670.7.

For `COc1cc(O)c2c(c1)O[C@H](c1cc(O)cc(O)c1)CC2=O` [Blumeatin], the “Z repl 1” value was -0.753 and the “Z Repl 2” value was -0.754. In addition, the “av Z” value under setting [1] is given as -0.753. Besides, the av puncta under setting [3] stood at 11011.8. Where the note is “puncta”, the “raw data 1” value was found to be 17305.9 and the “raw data 2” value is on record as 4717.73.

On to `Oc1ccc2c(c1)OC[C@]1(O)Cc3cc(O)c(O)cc3[C@H]21` [Brazilin], for which the “Z repl 1” value was -0.564 and the “Z Repl 2” value is -0.743. Besides, the “av Z” value under setting [1] is -0.654. Moreover, the av puncta under setting [3] is 12203.7. Also, for the setting “puncta”, the “raw data 1” value came to 19572.7 and the “raw data 2” value came out at 4834.73.

For `O=C1CC(C(=O)O)c2c1oc(=O)c1cc(O)c(O)c(O)c21` (stereo not drawn) [Brevifolincarboxylic acid], the “Z repl 1” value is reported as -1.001 and the “Z Repl 2” value is reported as -1.013. Moreover, the “av Z” value under setting [1] is given as -1.007. For the setting “average of raw data 1 and 2”, this molecule had an av puncta of 8139.85. Further, under “puncta”, the “raw data 1” value came to 14330.3 and the “raw data 2” value is 1949.4.

Take `O=C(/C=C/c1ccc(O)c(O)c1)c1ccc(O)cc1O` [Butein]: the “Z repl 1” value is reported as -0.211 and the “Z Repl 2” value came out at 0.15. Moreover, the “av Z” value under setting [4] was -0.031. In addition, the av puncta (average of raw data 1 and 2) was 19090.8. Further, where the note is “puncta”, the “raw data 1” value is recorded as 23813.7 and the “raw data 2” value is listed as 14367.8.

For the molecule `O=C(/C=C/c1ccc(O)c(O)c1)OCCc1ccccc1` [Caffeic acid phenethyl ester], the “Z repl 1” value is recorded as -0.979 and the “Z Repl 2” value is -0.394. Moreover, under setting [1], the “av Z” value is recorded as -0.686. The same molecule returned an av puncta under setting [3] of 11579.1. Besides, under “puncta”, the “raw data 1” value worked out at 14598.6 and the “raw data 2” value is listed as 8559.5.

For the molecule `O=C(/C=C/c1ccc(O)c(O)c1)O[C@@H](C(=O)O)[C@@H](O)C(=O)O` [Caftaric acid], the “Z repl 1” value is -0.317 and the “Z Repl 2” value is reported as -0.61. Further, for the setting “10 μM phenol in cell cultures, AD brain homogenate preincubated 16 hours, two biological replicates, positive = catalyzes seeding, negative = inhibits”, the “AvZ (average z score of seeding, SDs from the mean level of seeding)” value is on record as -0.464. The av puncta under setting [3] was 14397.2. For the same molecule, for the setting “puncta”, the “raw data 1” value was 22545.7 and the “raw data 2” value turned out to be 6248.57.

For the molecule `O=C(/C=C/c1ccc(O)c(O)c1)OC[C@H]1O[C@@H](OCCc2ccc(O)c(O)c2)[C@H](O)[C@@H](O)[C@@H]1O` [Calceolarioside B], the “Z repl 1” value is recorded as 0.11 and the “Z Repl 2” value is recorded as -0.703. The “av Z” value under setting [1] was -0.297. For the same molecule, under setting [3], the av puncta was 16462.2. Moreover, where the note is “raw puncta”, the “raw data 1” value turned out to be 27671.5 and the “raw data 2” value was 5252.85.

`COc1ccc(-c2coc3cc(O[C@@H]4O[C@H](CO)[C@@H](O)[C@H](O)[C@H]4O)ccc3c2=O)cc1O` [Calycosin-7-O-?-D-glucoside]: the “Z repl 1” value is recorded as 0.722 and the “Z Repl 2” value came out at 1.127. In addition, the “av Z” value under setting [2] is 0.924. The av puncta (average of raw data 1 and 2) came to 29908.6. Where the note is “puncta”, the “raw data 1” value turned out to be 35020 and the “raw data 2” value came out at 24797.2.

`COc1ccc(-c2coc3cc(O)ccc3c2=O)cc1O` [Calycosin]: the “Z repl 1” value was found to be 0.387 and the “Z Repl 2” value was -0.53. Further, under setting [4], the “av Z” value was -0.072. Under “average of raw data 1 and 2”, this molecule yielded an av puncta of 19046. Also, for the setting “puncta”, the “raw data 1” value came to 30989.7 and the “raw data 2” value was 7102.22.

Source of the values: paper PMC11784839, “Monoaminergic neurotransmitters are bimodal effectors of tau aggregation” (Science Advances, 2025).
